Patent US20230404972A1, “INHIBITION OF CASPASE PATHWAY AS A TREATMENT FOR LYSOSOMAL STORAGE DISORDERS” (Lysosomal and Rare Disorders Research and Treatment Center, …, priority 2020, published 2023)

How the values were obtained:
IL-18 = IL-18 ELISA of PBMC cell culture supernatant; assay type: cell-based, human; conditions: PBMCs from LSD patients, 1 uM, 6 hr, relative to untreated PBMCs
Protocol: (§1) PBMCs are extracted from 3-5 ml peripheral blood using Ficoll-Paque (GE health care). 2-4 ml of whole blood is diluted 1:2 using Phosphate buffered saline (PBS) containing 2% fetal bovine serum (FBS) and overlayed onto Ficoll solution in 15 ml leucosep tube. The tubes are centrifuged at 2000 g for 10 minutes with no brakes. The layer containing PBMCs is transferred into a fresh 15 ml tube and washed with PBS+2% FBS. The cells are then resuspended in RPMI+10% FBS. The cells were then counted using heniocytometer and plated into 96 well plates and set at 37° C. incubator with 5% CO2. […]
(§2) Caspase-1, IL-1 beta and IL-18 were quantified as a measure of capase-1 activity. CCL18 and chitotriosidase were measured as to indicate macrophage activation and reflect clinical outcomes. ELISAs were performed as per manufacturer's protocols to quantify the following cytokines: 1) Caspase 1 (Therrnofisher Scientific, Waltham, MA, USA), 2) IL-1 beta, 3) IL-18 (Abcam, Cambridge, MA, USA), 4) CCL-18 cytokines-1 (Themofisher scientific, Waltham, MA, USA). […]
(§3) Caspase-1 mediated inflammasome cleaves pro-IL-1 beta and pro-IL-18 into active forms II-1 beta and IL-18 which are secreted from the cells. […] Relative decrease for each sample was calculated as relative to untreated PBMCs (FIG. 3A and 3B). […]

Chitotriosidase = Chitotriosidase assay (4-Methylumbelliferone chitotrioside substrate) of PBMC cell culture supernatant; assay type: cell-based, human; conditions: PBMCs from LSD patients, 1 μM, 6 hr, with vs without treatment
CCL18 = CCL18 ELISA of PBMC cell culture supernatant; assay type: cell-based, human; conditions: PBMCs from LSD patients, 1 μM, 6 hr, with vs without treatment
Caspase 1 = target: T1, Caspase 1 (Homo sapiens, UniProt P29466); test: Caspase-Glo 1 inflammasome assay in PBMCs from LSD patients; assay type: cell-based; conditions: 1 μM, 6 hr, vs untreated PBMCs
T1 construct: Caspase 1 activity within the PBMCs; endogenous in cells; host or cells: primary PBMCs from LSD patients
T1 sequence (P29466 120-297 limits assumed): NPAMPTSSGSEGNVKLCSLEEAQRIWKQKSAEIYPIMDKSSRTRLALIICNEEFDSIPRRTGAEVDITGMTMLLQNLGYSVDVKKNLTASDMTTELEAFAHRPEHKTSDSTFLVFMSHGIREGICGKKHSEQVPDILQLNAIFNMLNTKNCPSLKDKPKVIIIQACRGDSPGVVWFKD
T1 sequence (P29466 317-404 limits assumed): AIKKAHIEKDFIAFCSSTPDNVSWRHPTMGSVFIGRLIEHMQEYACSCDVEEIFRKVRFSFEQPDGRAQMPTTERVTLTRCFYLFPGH
Protocol: PBMCs are extracted from 3-5 ml peripheral blood using Ficoll-Paque (GE health care). 2-4 ml of whole blood is diluted 1:2 using Phosphate buffered saline (PBS) containing 2% fetal bovine serum (FBS) and overlayed onto Ficoll solution in 15 ml leucosep tube. The tubes are centrifuged at 2000 g for 10 minutes with no brakes. The layer containing PBMCs is transferred into a fresh 15 ml tube and washed with PBS+2% FBS. The cells are then resuspended in RPMI+10% FBS. The cells were then counted using heniocytometer and plated into 96 well plates and set at 37° C. incubator with 5% CO2.
The pan-caspase inhibitor, Emricasan (Sigma-Aldrich, Inc., St. Louis, MO, USA), was added to the PBMCs in 96-well plates to a final concentration of 1 μM. After 6 hr of Emricasan treatment, the cells were divided into two groups and used for 1) measurement of Caspase 1 activity within the PBMCs using Caspase-Glo 1 inflammasome assay (Promega, Madison, WI, USA), and 2) the supernatant was collected after centrifuging at 3000 rpm for 5 min to perform ELISA assays for cytokines: IL-1 beta and IL-18 as well as macrophage activation markers: Chitotriosidase and CCL18. […]
as §3

IL-1 beta = IL-1 beta ELISA of PBMC cell culture supernatant; assay type: cell-based, human; conditions: PBMCs from LSD patients, 1 uM, 6 hr, relative to untreated PBMCs
Protocol: as §1, §2, §3

Structure (SMILES): C[C@H](NC(=O)C(=O)Nc1ccccc1C(C)(C)C)C(=O)N[C@@H](CC(=O)O)C(=O)COc1c(F)c(F)cc(F)c1F [Emricasan, (3S)-3-({N-[{[2-(2-Methyl-2-propanyl)phenyl]amino}(oxo)acetyl]alanyl}amino)-4-oxo-5-(2,3,5,6-tetrafluorophenoxy) pentanoic acid]
- secreted IL-18 in the cell culture supernatant (IL-18): significant decrease
- production of chitotriosidase (macrophage activation biomarker) in cell culture medium (Chitotriosidase): significant decrease
- production of CCL18 (macrophage activation biomarker) in cell culture medium (CCL18): significant decrease
- Caspase 1 activity within the PBMCs (Caspase 1): reduced
- secreted IL-1 beta in the cell culture supernatant (IL-1 beta): significant decrease
